Publication PMC6934184, “Selective DNA-PKcs inhibition extends the therapeutic index of localized radiotherapy and chemotherapy” (The Journal of Clinical Investigation, 2019)

Target: T1, PRKD1 (PKC mu) (Homo sapiens, UniProt Q15139)
T1 construct: purchased Thermo Fisher Scientific (Life Technologies) SelectScreen
Experiment: SelectScreen Z'LYTE
Format: biochemical
Outline: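 NU5455 was profiled across the SelectScreen Broad panel of kinase activity and binding assays. Z'LYTE reactions such as CSF1R ran at apparent Km ATP, while the Adapta CAMK1 assay used ATP listed as 10. Values are given as percent.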

T1 sequence (Q15139 whole entry): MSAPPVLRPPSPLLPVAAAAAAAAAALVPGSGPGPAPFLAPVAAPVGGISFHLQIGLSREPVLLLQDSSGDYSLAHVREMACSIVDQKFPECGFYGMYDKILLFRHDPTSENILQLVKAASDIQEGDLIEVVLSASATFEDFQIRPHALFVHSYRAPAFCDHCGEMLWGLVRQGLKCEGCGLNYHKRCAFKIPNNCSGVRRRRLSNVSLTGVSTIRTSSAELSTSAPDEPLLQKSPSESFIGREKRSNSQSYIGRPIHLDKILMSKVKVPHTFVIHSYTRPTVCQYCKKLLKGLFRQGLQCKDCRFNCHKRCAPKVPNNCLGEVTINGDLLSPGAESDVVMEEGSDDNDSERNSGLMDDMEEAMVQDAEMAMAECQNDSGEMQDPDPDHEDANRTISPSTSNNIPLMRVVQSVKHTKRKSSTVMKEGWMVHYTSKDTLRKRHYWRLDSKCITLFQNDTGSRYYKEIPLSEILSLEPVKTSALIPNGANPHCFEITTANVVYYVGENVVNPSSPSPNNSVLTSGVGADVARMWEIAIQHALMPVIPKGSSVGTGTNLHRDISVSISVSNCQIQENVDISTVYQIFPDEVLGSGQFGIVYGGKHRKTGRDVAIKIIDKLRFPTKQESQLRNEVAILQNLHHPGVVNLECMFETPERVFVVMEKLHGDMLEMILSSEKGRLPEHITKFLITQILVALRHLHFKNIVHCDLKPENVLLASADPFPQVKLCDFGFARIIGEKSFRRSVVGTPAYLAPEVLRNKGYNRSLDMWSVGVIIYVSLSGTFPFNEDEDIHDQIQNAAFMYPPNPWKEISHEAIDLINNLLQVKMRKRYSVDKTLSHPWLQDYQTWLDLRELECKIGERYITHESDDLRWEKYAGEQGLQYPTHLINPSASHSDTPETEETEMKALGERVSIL

`CN(C(=O)CN1CCOCC1)c1ccc2sc3c(-c4cccc5c(=O)cc(N6CC7CCC(C6)O7)oc45)cccc3c2c1` [NU5455] showed an inhibition at 1 µM of -8.5%.
